The target in assay [1] is T1, cathepsin B (Homo sapiens, UniProt P07858). Kind of assay: CEST imaging of phantoms (glutamate, PLG, PLG+cathepsin B) on 7T whole-body scanner. The assay is classed as biochemical. The note with it: phantom, room temperature; for CEST contrast at 3 ppm: substance alone. The procedure:
(§1) Both the CEST imaging and MRS were performed.

In assay [2] the target is T1, cathepsin B. Kind of assay: Proton MRS of phantoms (PLG+cathepsin B) on 7T whole-body scanner. It counts as biochemical. The note with it: phantom with PLG and cathepsin B. As for the experimental part: as §1
In a further assay the test system is F98 tumor cells. Conditions: after addition of PLG vs without PLG, 9.4 T. The procedure:
as §1
F98 cell line is known to be aggressive and expresses cathepsin B and other proteases.

For the compound `N[C@@H](CCC(=O)O)C(=O)O` [Glu, glutamate], the “CEST contrast at 3 ppm” value on cathepsin B [1] is “strong CEST contrast”.

Poly(L-glutamic acid) [PLG]: on cathepsin B [1] (PLG with cathepsin B), the “CEST contrast at 3 ppm after addition of cathepsin B” value was “appreciable CEST contrast”. For the same compound, the “CEST contrast at 3 ppm” value on cathepsin B [1] is on record as “No CEST contrast”. The “MR spectrum change with cathepsin B” value at cathepsin B [2] is “cleavage of 2.3 and 4.1 ppm peaks”. Also, the “increase in CEST contrast at 3 ppm” value in the assay with F98 tumor cells is listed as −16%.

These data come from patent US10791989B2, “Magnetic resonance imaging of poly-L-glutamate” (The Trustees of The University of Pennsylvania, priority 2013, dated 2020).
